Patent US8388963B2, “Antitumor combinations containing a VEGF-inhibiting agent and 5FU or a derivative thereof” (Aventis Pharma SA, priority 2004, dated 2013)
Like-named read-outs stand apart in the source and are kept apart here.

How the values were obtained:
[1] = system: MC 13/C mammary tumor; assay: antitumor activity on subcutaneously transplanted mammary tumor in mice (study BCM-1428)
Experimental: A product is considered to be active if log10 killed cells is greater than or equal to 0.7. A product is considered to be very active if the log10 killed cells is greater than 2.8.
30 to 60 mg of an MC 13/C mammary tumor fragment are transplanted bilaterally, subcutaneously, into the animals subjected to the experiment, generally mice, on day 0. The animals bearing the tumors are randomized before being subjected to the various treatments and controls. In the case of treatment of advanced tumors, the tumors are left to develop until the desired size, the animals having insufficiently developed tumors being eliminated. The animals selected are divided up randomly so as to undergo the treatments and the controls. […] The chemotherapy generally begins from 3 to 22 days after the tumor transplant, according to the type of tumor, and the animals are observed every day. The various groups of animals are weighed three or four times a week until the maximum weight loss is obtained, and then the groups are weighed at least once a week until the end of the trial.
The tumors are measured two or three times a week until the tumor reaches approximately 2 g or until the animal's death if the latter occurs before the tumor reaches 2 g. The animals are autopsied when they are sacrificed.
The antitumor activity is determined as a function of the various parameters recorded.
0.2 ml per mouse is prepared, according to the usual technique, for intravenous administration, from a commercial solution of 5 cm^3 containing 250 mg of 5 FU to be diluted with 5% glucose in water.
These solutions are administered simultaneously, after suitable dilution, by infusion.

[2] = type: in vivo
[3] = iv 5-FU 34.6 mg/kg/day (total 103.8), days 4,11,18
[4] = iv 5-FU 55.8 mg/kg/day (total 167.4), days 4,11,18
[5] = iv 5-FU 90 mg/kg/day (total 270), days 4,11,18
[6] = iv 5-FU 145 mg/kg/day (total 435), days 4,11,18
[7] = sc VEGF-Trap 2.5 mg/kg/day (total 15), days 4,7,11,14,18,21
[8] = sc VEGF-Trap 10 mg/kg/day (total 60), days 4,7,11,14,18,21
[9] = sc VEGF-Trap 25 mg/kg/day (total 150), days 4,7,11,14,18,21
[10] = sc VEGF-Trap 40 mg/kg/day (total 240), days 4,7,11,14,18,21

Compound: O=c1[nH]cc(F)c(=O)[nH]1 [5-FU, 5-fluorouracil, reference compound]
- % T/C (inhibition of tumor growth at day 24) [1, 3]: 34%
- T-C days (delay of tumor growth) [1, 3]: 4.6 days
- lck (log cells killed) [1, 3]: 0.5
- % T/C (inhibition of tumor growth at day 24) [1, 4]: 12%
- T-C days (delay of tumor growth) [1, 4]: 7.8 days
- lck (log cells killed) [1, 4]: 0.8
- % T/C (inhibition of tumor growth at day 24) [1, 5]: 0%
- T-C days (delay of tumor growth) [1, 5]: 12.5 days
- lck (log cells killed) [1, 5]: 1.3
- % T/C (inhibition of tumor growth at day 24) [1, 6]: Toxic
- % weight loss at the lowest point [2, 3]: +2.3%
- Death due to the treatment [2, 3]: 0/5
- % weight loss at the lowest point [2, 4]: 1.1%
- Death due to the treatment [2, 4]: 0/5
- % weight loss at the lowest point [2, 5]: 4.8%
- Death due to the treatment [2, 5]: 0/5
- % weight loss at the lowest point [2, 6]: 8.7%
- Death due to the treatment [2, 6]: 1/5

Compound: VEGF-Trap: fusion protein: VEGFR1 signal sequence, Ig domain D2 of VEGFR1, Ig domain D3 of VEGFR2, Fc domain of IgG1
- % T/C (inhibition of tumor growth at day 24) [1, 7]: 32%
- T-C days (delay of tumor growth) [1, 7]: 5.2 days
- lck (log cells killed) [1, 7]: 0.6
- % T/C (inhibition of tumor growth at day 24) [1, 8]: 9%
- T-C days (delay of tumor growth) [1, 8]: 12.1 days
- lck (log cells killed) [1, 8]: 1.3
- % T/C (inhibition of tumor growth at day 24) [1, 9]: 8%
- T-C days (delay of tumor growth) [1, 9]: 13.9 days
- lck (log cells killed) [1, 9]: 1.5
- % T/C (inhibition of tumor growth at day 24) [1, 10]: 4%
- T-C days (delay of tumor growth) [1, 10]: 12.7 days
- lck (log cells killed) [1, 10]: 1.4
- % weight loss at the lowest point [2, 7]: 0.9%
- Death due to the treatment [2, 7]: 0/5
- % weight loss at the lowest point [2, 8]: 1.1%
- Death due to the treatment [2, 8]: 0/5
- % weight loss at the lowest point [2, 9]: 1.1%
- Death due to the treatment [2, 9]: 0/5
- % weight loss at the lowest point [2, 10]: 2.3%
- Death due to the treatment [2, 10]: 0/5
